From ChEMBL document CHEMBL5137010, “N-Acetyl-Cysteinylated Streptophenazines from Streptomyces” (J Nat Prod, 2022)
Values after ≈ are worked out from the molar mass of the structure shown.

Experiments:
Staphylococcus aureus = test: Antibacterial activity against Staphylococcus aureus L100 assessed as inhibition of bacterial growth at 10 hrs by plate reader analysis; type: functional
Micrococcus luteus = test: Antibacterial activity against Micrococcus luteus L108 assessed as inhibition of bacterial growth at 10 hrs by plate reader analysis; type: functional
Pseudomonas aeruginosa = test: Antibacterial activity against Pseudomonas aeruginosa ATCC 27853 assessed as inhibition of bacterial growth at 10 hrs by plate reader analysis; type: functional
Streptococcus pneumoniae = test: Antibacterial activity against Streptococcus pneumoniae L44 assessed as inhibition of bacterial growth at 10 hrs by plate reader analysis; type: functional
[1] = Cytotoxicity against human Caco-2 cells assessed as reduction in cell viability incubated for 24 hrs by alamar blue assay; type: toxicity, cell-based
Enterococcus faecium = test: Antibacterial activity against Enterococcus faecium L568 assessed as inhibition of bacterial growth at 10 hrs by plate reader analysis; type: functional
[2] = Cytotoxicity against HEK293 cells assessed as reduction in cell viability incubated for 24 hrs by alamar blue assay; type: toxicity, cell-based; details: human
Escherichia coli = test: Antibacterial activity against Escherichia coli L4242 harboring delta tolC mutant assessed as inhibition of bacterial growth at 10 hrs by plate reader analysis; type: functional

## COC(=O)c1cccc2nc3c([C@@H](SC[C@H](NC(C)=O)C(=O)O)[C@@H](CCCCC(C)C)C(=O)OC)cccc3nc12
Staphylococcus aureus
  MIC: 43 µM (≈ 25.1 µg/mL)
Micrococcus luteus
  MIC: 68 µM (≈ 39.7 µg/mL)
Pseudomonas aeruginosa
  MIC: 428 µM (≈ 250 µg/mL)
Streptococcus pneumoniae
  MIC: 12 µM (≈ 7 µg/mL)
[1]
  IC50 at 24 h: 154 µM
Enterococcus faecium
  MIC: 428 µM (≈ 250 µg/mL)
[2]
  IC50 at 24 h: > 220 µM
Escherichia coli
  MIC: 291 µM (≈ 170 µg/mL)
